{"source": "patent US10633394B2", "about": "“Heterocyclic derivatives and use thereof” (C & C RESEARCH LABORATORIES, priority 2014, dated 2020)", "format_in_all_cases": "cell-based", "key": {"STAT3": {"target": "T1, STAT3 (Homo sapiens, UniProt P40763)", "T1 construct": "plasmid pSTAT3-TA-luc), which contains a stably operating STAT3 promoter; endogenous in cells", "T1 sequence (P40763 whole entry)": "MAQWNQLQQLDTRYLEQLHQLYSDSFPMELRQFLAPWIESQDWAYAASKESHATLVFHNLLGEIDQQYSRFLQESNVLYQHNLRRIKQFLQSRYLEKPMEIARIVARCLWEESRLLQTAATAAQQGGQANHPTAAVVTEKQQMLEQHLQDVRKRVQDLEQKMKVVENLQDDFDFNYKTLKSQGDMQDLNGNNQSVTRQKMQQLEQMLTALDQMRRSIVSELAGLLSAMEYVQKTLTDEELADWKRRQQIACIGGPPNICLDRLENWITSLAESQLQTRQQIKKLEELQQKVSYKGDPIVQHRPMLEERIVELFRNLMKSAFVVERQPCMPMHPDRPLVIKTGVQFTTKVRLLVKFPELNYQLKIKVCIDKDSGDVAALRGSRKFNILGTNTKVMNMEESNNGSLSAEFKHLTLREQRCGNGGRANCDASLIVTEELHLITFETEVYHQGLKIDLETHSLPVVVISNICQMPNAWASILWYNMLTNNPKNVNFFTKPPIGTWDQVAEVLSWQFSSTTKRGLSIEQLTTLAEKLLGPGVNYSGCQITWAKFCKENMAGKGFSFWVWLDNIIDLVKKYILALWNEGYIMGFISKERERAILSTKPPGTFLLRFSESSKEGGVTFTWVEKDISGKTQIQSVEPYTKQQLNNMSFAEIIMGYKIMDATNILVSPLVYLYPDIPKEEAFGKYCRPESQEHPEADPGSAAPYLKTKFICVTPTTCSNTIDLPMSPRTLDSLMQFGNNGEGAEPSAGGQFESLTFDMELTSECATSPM", "assay": "STAT3 reporter gene (luciferase) assay in LNCaP stable cell line stimulated with IL-6", "settings": "LNCaP stable cell line (pSTAT3-TA-luc), IL-6 10 ng/mL, 24 hours", "protocol": "1-1) Experiment on the Inhibition of STAT3 Activity\nA human prostate cancer cell line (LNCaP stable cell line; plasmid pSTAT3-TA-luc), which contains a stably operating STAT3 promoter, was cultured in RPMI1640 medium (Cat No. 11875, Life Technologies) containing 10% fetal bovine serum (FBS) (Cat No. SH30396, Thermo Scientific) and 150 μg/mL G-418 solution (Cat No. 04 727 894 001, Roche). The reporter gene assay using LNCaP stable cell line was performed in RPMI1640 medium containing 3% DCC-FBS without G-418 solution. LNCaP stable cells were plated in two (2) white 96-well plates with 30,000 cells/50 μL in each well. The cells were cultured at 37° C., under 5% CO2 for 24 hours, and then treated with the compounds listed in Examples which were diluted in various concentrations. Subsequently, IL-6 was added to each well with a final concentration of 10 ng/mL. Upon completion of the treatment with the compounds and IL-6, the cells were cultured at 37° C., under 5% CO2 for 24 hours. The plates were observed under microscope and drug precipitation and particular findings were investigated and recorded.\nThe luciferase assay and the cell viability assay were performed respectively with one of the two plates. For the luciferase assay, the liquid media in the 96-well plate was removed, and then, 20 μL of passive cell lysis buffer was added to each well. After shaking the plate for 30 minutes, luciferase activities of each well were measured in a PHERAstar™ microplate reader (BMG LABTECH) using a luciferase assay system (Cat No. E1501, Promega). For the cell viability assay, the 96-well plate was placed at room temperature for 30 minutes, added with 20 μL/well of CellTiter-Glo solution (Cat No. G7573, Promega), and shaken for 10 minutes in order to measure cytotoxicity caused by the compounds listed in Examples with a PHERAstar™ microplate reader (BMG LABTECH). Wells without 0.1% DMSO and stimulation were used as a negative control and wells with 0.1% DMSO and stimulation were used as a positive control.\nThe results of evaluation on the inhibitory effect of the compounds listed in the Examples on the dimerization of STAT3 and STAT1 obtained via the STAT3 and STAT1 reporter gene assays are shown in Table 6 below."}, "NCI-N87": {"system": "NCI-N87", "assay": "Cell growth inhibition assay (CellTiter-Glo), stomach cancer cell line NCI-N87", "settings": "Homo sapiens; NCI-N87 cells, 96 hours", "protocol": "(§1) The inhibitory effects of the compounds of the present invention against the growth of cancer cells were evaluated as shown below. The cancer cell lines including stomach cancer cell line (NCI-N87) and breast cancer cell line (MDA-MB-468) were cultured under the protocol provided by each supplier. Each type of cells to be used in experiments was sub-cultured in a 96-well plate by counting the exact number of cells using Tali™ Image-based Cytometer (Life Technologies). In a 96-well plate, NCI-N87 was employed with 5,000 cells/well; and MDA-MB-468 was employed with 10,000 cells/well. The cells were treated with the compounds listed in Examples which were diluted in various concentrations. Upon completion of the compounds treatment, NCI-N87 cells were cultured at 37° C. under 5% CO2 for 96 hours, and MDA-MB-468 cells were cultured at 37° C. in air for 96 hours. Subsequently, the cells were observed under microscope and drug precipitation and particular findings were investigated and recorded. And then, the 96-well plate was placed at room temperature for 30 minutes, added with 20 μL/well of CellTiter-Glo solution (Cat No. G7573, Promega) and shaken for 10 minutes, followed by being subjected to the measurement using PHERAstar™ microplate reader (BMG LABTECH) according to the supplier's general luminometer protocol. Wells where only culture liquid added without cell plating were used as a negative control, whereas wells where culture liquid containing 0.1% DMSO instead of the compounds listed in Examples were used as a positive control."}, "MDA-MB-468": {"system": "MDA-MB-468", "assay": "Cell growth inhibition assay (CellTiter-Glo), breast cancer cell line MDA-MB-468", "settings": "Homo sapiens; MDA-MB-468 cells, 96 hours", "protocol": "as §1"}}, "data": [{"smiles": "CS(=O)(=O)C1CCOc2cc3sc(C(=O)Nc4cc(Cl)nc(Oc5ccccc5OC(F)(F)F)c4)cc3cc21", "note": "(stereo not drawn) [Example 40, N-(2-chloro-6-(2-(trifluoromethoxy)phenoxy)pyridin-4-yl)-4-(methylsulfonyl)-3,4-dihydro-2H-thieno[3,2-g]chromene-7-carboxamide]", "values": [{"measurement": "IC50", "setting": "STAT3", "value": 0.0087, "unit": "µM"}, {"measurement": "IC50", "setting": "NCI-N87", "value": 0.023, "unit": "µM"}, {"measurement": "IC50", "setting": "MDA-MB-468", "value": 0.0086, "unit": "µM"}]}, {"smiles": "Cc1cccc(Oc2cc(NC(=O)c3cc4cc5c(cc4s3)OCCC5S(C)(=O)=O)cc(Cl)n2)c1F", "note": "(stereo not drawn) [Example 41, N-(2-chloro-6-(2-fluoro-3-methylphenoxy)pyridin-4-yl)-4-(methylsulfonyl)-3,4-dihydro-2H-thieno[3,2-g]chromene-7-carboxamide]", "values": [{"measurement": "IC50", "setting": "STAT3", "value": 0.011, "unit": "µM"}, {"measurement": "IC50", "setting": "NCI-N87", "value": 0.021, "unit": "µM"}, {"measurement": "IC50", "setting": "MDA-MB-468", "value": 0.012, "unit": "µM"}]}, {"smiles": "COc1cc(Cl)ccc1Oc1cc(NC(=O)c2cc3cc4c(cc3s2)OCCC4S(C)(=O)=O)cc(Cl)n1", "note": "(stereo not drawn) [Example 42, N-(2-chloro-6-(4-chloro-2-methoxyphenoxy)pyridin-4-yl)-4-(methylsulfonyl)-3,4-dihydro-2H-thieno[3,2-g]chromene-7-carboxamide]", "values": [{"measurement": "IC50", "setting": "STAT3", "value": 0.023, "unit": "µM"}, {"measurement": "IC50", "setting": "NCI-N87", "value": 0.024, "unit": "µM"}, {"measurement": "IC50", "setting": "MDA-MB-468", "value": 0.0078, "unit": "µM"}]}, {"smiles": "CS(=O)(=O)[C@H]1CCOc2cc3sc(C(=O)Nc4cc(Cl)nc(Oc5ccc(Cl)cc5)c4)cc3cc21", "note": "[Example 43, (S)—N-(2-chloro-6-(4-chlorophenoxy)pyridin-4-yl)-4-(methylsulfonyl)-3,4-dihydro-2H-thieno[3,2-g]chromene-7-carboxamide]", "values": [{"measurement": "IC50", "setting": "STAT3", "value": 0.018, "unit": "µM"}, {"measurement": "IC50", "setting": "NCI-N87", "value": 0.015, "unit": "µM"}, {"measurement": "IC50", "setting": "MDA-MB-468", "value": 0.0029, "unit": "µM"}]}, {"smiles": "CS(=O)(=O)[C@@H]1CCOc2cc3sc(C(=O)Nc4cc(Cl)nc(Oc5ccc(Cl)cc5)c4)cc3cc21", "note": "[Example 44, (R)—N-(2-chloro-6-(4-chlorophenoxy)pyridin-4-yl)-4-(methylsulfonyl)-3,4-dihydro-2H-thieno[3,2-g]chromene-7-carboxamide]", "values": [{"measurement": "IC50", "setting": "STAT3", "value": 1.5, "unit": "µM"}, {"measurement": "IC50", "setting": "NCI-N87", "value": 1.8, "unit": "µM"}, {"measurement": "IC50", "setting": "MDA-MB-468", "value": 0.086, "unit": "µM"}]}, {"smiles": "CS(=O)(=O)[C@@]1(F)CCOc2cc3sc(C(=O)Nc4cc(Cl)nc(Oc5ccc(Cl)cc5)c4)cc3cc21", "note": "[Example 45, (S)—N-(2-chloro-6-(4-chlorophenoxy)pyridin-4-yl)-4-fluoro-4-(methylsulfonyl)-3,4-dihydro-2H-thieno[3,2-g]chromene-7-carboxamide]", "values": [{"measurement": "IC50", "setting": "STAT3", "value": 0.0039, "unit": "µM"}, {"measurement": "IC50", "setting": "NCI-N87", "value": 0.0056, "unit": "µM"}, {"measurement": "IC50", "setting": "MDA-MB-468", "value": 0.0025, "unit": "µM"}]}, {"smiles": "CS(=O)(=O)[C@]1(F)CCOc2cc3sc(C(=O)Nc4cc(Cl)nc(Oc5ccc(Cl)cc5)c4)cc3cc21", "note": "[Example 46, (R)—N-(2-chloro-6-(4-chlorophenoxy)pyridin-4-yl)-4-fluoro-4-(methylsulfonyl)-3,4-dihydro-2H-thieno[3,2-g]chromene-7-carboxamide]", "values": [{"measurement": "IC50", "setting": "STAT3", "value": 0.14, "unit": "µM"}, {"measurement": "IC50", "setting": "NCI-N87", "value": 0.56, "unit": "µM"}, {"measurement": "IC50", "setting": "MDA-MB-468", "value": "> 0.1", "unit": "µM"}]}, {"smiles": "C[C@]1(S(C)(=O)=O)CCOc2cc3sc(C(=O)Nc4cc(Cl)nc(Oc5ccc(Cl)cc5)c4)cc3cc21", "note": "[Example 47, (S)—N-(2-chloro-6-(4-chlorophenoxy)pyridin-4-yl)-4-methyl-4-(methylsulfonyl)-3,4-dihydro-2H-thieno[3,2-g]chromene-7-carboxamide]", "values": [{"measurement": "IC50", "setting": "STAT3", "value": 0.0045, "unit": "µM"}, {"measurement": "IC50", "setting": "NCI-N87", "value": 0.0064, "unit": "µM"}, {"measurement": "IC50", "setting": "MDA-MB-468", "value": 0.0017, "unit": "µM"}]}, {"smiles": "C[C@@]1(S(C)(=O)=O)CCOc2cc3sc(C(=O)Nc4cc(Cl)nc(Oc5ccc(Cl)cc5)c4)cc3cc21", "note": "[Example 48, (R)—N-(2-chloro-6-(4-chlorophenoxy)pyridin-4-yl)-4-methyl-4-(methylsulfonyl)-3,4-dihydro-2H-thieno[3,2-g]chromene-7-carboxamide]", "values": [{"measurement": "IC50", "setting": "STAT3", "value": 0.15, "unit": "µM"}, {"measurement": "IC50", "setting": "NCI-N87", "value": 0.79, "unit": "µM"}, {"measurement": "IC50", "setting": "MDA-MB-468", "value": "> 0.1", "unit": "µM"}]}, {"smiles": "COc1cc(Cl)cc(Oc2cc(NC(=O)c3cc4cc5c(cc4s3)OCC[C@@H]5S(C)(=O)=O)cc(Cl)n2)c1", "note": "[Example 49, (S)—N-(2-chloro-6-(3-chloro-5-methoxyphenoxy)pyridin-4-yl)-4-(methylsulfonyl)-3,4-dihydro-2H-thieno[3,2-g]chromene-7-carboxamide]", "values": [{"measurement": "IC50", "setting": "STAT3", "value": 0.0066, "unit": "µM"}, {"measurement": "IC50", "setting": "NCI-N87", "value": 0.018, "unit": "µM"}, {"measurement": "IC50", "setting": "MDA-MB-468", "value": 0.0059, "unit": "µM"}]}, {"smiles": "CS(=O)(=O)C1CCC(=O)c2cc3sc(C(=O)Nc4cc(Cl)nc(Oc5ccc(Cl)cc5)c4)cc3cc21", "note": "(stereo not drawn) [Example 51, N-(2-chloro-6-(4-chlorophenoxy)pyridin-4-yl)-5-(methylsulfonyl)-8-oxo-5,6,7,8-tetrahydronaphtho[2,3-b]thiophene-2-carboxamide]", "values": [{"measurement": "IC50", "setting": "STAT3", "value": 0.1, "unit": "µM"}, {"measurement": "IC50", "setting": "NCI-N87", "value": 0.2, "unit": "µM"}, {"measurement": "IC50", "setting": "MDA-MB-468", "value": 0.05, "unit": "µM"}]}, {"smiles": "O=C(Nc1cc(Cl)nc(Oc2ccc(Cl)cc2)c1)c1cc2cc3c(cc2s1)OCCC3n1cccn1", "note": "(stereo not drawn) [Example 52, N-(2-chloro-6-(4-chlorophenoxy)pyridin-4-yl)-4-(1H-pyrazol-1-yl)-3,4-dihydro-2H-thieno[3,2-g]chromene-7-carboxamide]", "values": [{"measurement": "IC50", "setting": "STAT3", "value": 0.1, "unit": "µM"}, {"measurement": "IC50", "setting": "NCI-N87", "value": 0.4, "unit": "µM"}, {"measurement": "IC50", "setting": "MDA-MB-468", "value": 0.12, "unit": "µM"}]}, {"smiles": "O=C(Nc1cc(Cl)nc(Oc2ccc(Cl)cc2)c1)c1cc2cc3c(cc2s1)OCCC3N1CCCC1=O", "note": "(stereo not drawn) [Example 53, N-(2-chloro-6-(4-chlorophenoxy)pyridin-4-yl)-4-(2-oxopyrrolidin-1-yl)-3,4-dihydro-2H-thieno[3,2-g]chromene-7-carboxamide]", "values": [{"measurement": "IC50", "setting": "STAT3", "value": 5.2, "unit": "µM"}, {"measurement": "IC50", "setting": "NCI-N87", "value": 4.4, "unit": "µM"}, {"measurement": "IC50", "setting": "MDA-MB-468", "value": 0.71, "unit": "µM"}]}, {"smiles": "N#CC1CCOc2cc3sc(C(=O)Nc4cc(Cl)nc(Oc5ccc(Cl)cc5)c4)cc3cc21", "note": "(stereo not drawn) [Example 54, N-(2-chloro-6-(4-chlorophenoxy)pyridin-4-yl)-4-cyano-3,4-dihydro-2H-thieno[3,2-g]chromene-7-carboxamide]", "values": [{"measurement": "IC50", "setting": "STAT3", "value": 0.18, "unit": "µM"}, {"measurement": "IC50", "setting": "NCI-N87", "value": 0.32, "unit": "µM"}, {"measurement": "IC50", "setting": "MDA-MB-468", "value": 0.075, "unit": "µM"}]}, {"smiles": "[N-]=[N+]=NC1CCOc2cc3sc(C(=O)Nc4cc(Cl)nc(Oc5ccc(Cl)cc5)c4)cc3cc21", "note": "(stereo not drawn) [Example 55, 4-azido-N-(2-chloro-6-(4-chlorophenoxy)pyridin-4-yl)-3,4-dihydro-2H-thieno[3,2-g]chromene-7-carboxamide]", "values": [{"measurement": "IC50", "setting": "STAT3", "value": 0.039, "unit": "µM"}, {"measurement": "IC50", "setting": "NCI-N87", "value": 1.2, "unit": "µM"}, {"measurement": "IC50", "setting": "MDA-MB-468", "value": 0.078, "unit": "µM"}]}]}
